Test results published in patent US12545677B2, “Compounds useful as factor XIa inhibitors” (JANSSEN PHARMACEUTICA NV, priority 2020, dated 2026).

Columns and labels:
HERG current = biological target: T1, HERG current (Homo sapiens, UniProt Q12809); test: hERG assay, whole-cell voltage clamp in HEK293 cells; type: cell-based; details: HEK293 with stable transfection of HERG, 5 minutes of drug application
T1 construct: expressed in transfected cells; host or cells: HEK293
Text: Biological Example 6: hERG Assay
HERG (human ether-à-go-go-related gene) encodes a potassium channel with biophysical properties similar to the rapidly activating delayed-rectifier K^+ current (IKr) in cardiac myocytes. This IKr current contributes to the K^+ current responsible for the repolarization phase of the cardiac action potential. Blockage of this current may prolong action potential duration and cause long QT-syndrome. The development of QT prolongation can lead to the occurrence of ventricular arrhythmias such as Torsades de Pointes, which can result in sudden death. […]
Electrophysiological measurements: The membrane current of the cells was measured at distinct membrane potentials with the patch clamp technique by means of an EPC-9 patch clamp amplifier. […] The HERG current (K+-selective outward current) was determined as the maximal tail current at −40 mV after a 2 second depolarization to +60 mV. […] Thereafter test pulses were given for 5 minutes to quantify the HERG current in control conditions. […] The effect of the test compound was measured after 5 minutes of drug application. […]
Measurements: The HERG current was determined as the maximal tail current at −40 mV after a 2 second depolarization to +60 mV, starting from a holding potential of −80 mV. […]

[1] = tested on: Salmonella typhimurium strains TA98 and TA mixed; test: AMES II assay; type: cell-based; details: absence and presence of S9
Experimental: Biological Example 7: AMES II Assay
The aim of this study was to evaluate compound(s) and/or their metabolite(s) for their ability to induce reverse mutations in a gene of histidine-requiring Salmonella typhimurium strains to produce histidine-independent strains of these bacteria, in the absence and in the presence of a mammalian metabolic activation system.
Mutagenic potential was assessed by using an in-house adaptation of the Ames II Mutagenicity Assay kit from Xenometrics (Boulder, CA, USA). The strains TA98 and TA mixed (a combination of 6 strains) used in this study were able to detect frame-shift mutations and base pair substitutions respectively. […]
In the in vitro gene reverse mutation test, effects were determined by exposing a mutant strain of Salmonella typhimurium to various concentrations of the test compound. […] These colonies (revertants) are readily detectable due to their ability to grow on a histidine deficient medium. […] The revertant bacteria are detected by their ability to grow in the absence of the amino acid required by the parent test strain. […] The strains containing the plasmid, pKM101, are reverted by a number of mutagens that are detected weakly or not at all with the non plasmid bearing parent strains. […]

T1 sequence (Q12809 whole entry): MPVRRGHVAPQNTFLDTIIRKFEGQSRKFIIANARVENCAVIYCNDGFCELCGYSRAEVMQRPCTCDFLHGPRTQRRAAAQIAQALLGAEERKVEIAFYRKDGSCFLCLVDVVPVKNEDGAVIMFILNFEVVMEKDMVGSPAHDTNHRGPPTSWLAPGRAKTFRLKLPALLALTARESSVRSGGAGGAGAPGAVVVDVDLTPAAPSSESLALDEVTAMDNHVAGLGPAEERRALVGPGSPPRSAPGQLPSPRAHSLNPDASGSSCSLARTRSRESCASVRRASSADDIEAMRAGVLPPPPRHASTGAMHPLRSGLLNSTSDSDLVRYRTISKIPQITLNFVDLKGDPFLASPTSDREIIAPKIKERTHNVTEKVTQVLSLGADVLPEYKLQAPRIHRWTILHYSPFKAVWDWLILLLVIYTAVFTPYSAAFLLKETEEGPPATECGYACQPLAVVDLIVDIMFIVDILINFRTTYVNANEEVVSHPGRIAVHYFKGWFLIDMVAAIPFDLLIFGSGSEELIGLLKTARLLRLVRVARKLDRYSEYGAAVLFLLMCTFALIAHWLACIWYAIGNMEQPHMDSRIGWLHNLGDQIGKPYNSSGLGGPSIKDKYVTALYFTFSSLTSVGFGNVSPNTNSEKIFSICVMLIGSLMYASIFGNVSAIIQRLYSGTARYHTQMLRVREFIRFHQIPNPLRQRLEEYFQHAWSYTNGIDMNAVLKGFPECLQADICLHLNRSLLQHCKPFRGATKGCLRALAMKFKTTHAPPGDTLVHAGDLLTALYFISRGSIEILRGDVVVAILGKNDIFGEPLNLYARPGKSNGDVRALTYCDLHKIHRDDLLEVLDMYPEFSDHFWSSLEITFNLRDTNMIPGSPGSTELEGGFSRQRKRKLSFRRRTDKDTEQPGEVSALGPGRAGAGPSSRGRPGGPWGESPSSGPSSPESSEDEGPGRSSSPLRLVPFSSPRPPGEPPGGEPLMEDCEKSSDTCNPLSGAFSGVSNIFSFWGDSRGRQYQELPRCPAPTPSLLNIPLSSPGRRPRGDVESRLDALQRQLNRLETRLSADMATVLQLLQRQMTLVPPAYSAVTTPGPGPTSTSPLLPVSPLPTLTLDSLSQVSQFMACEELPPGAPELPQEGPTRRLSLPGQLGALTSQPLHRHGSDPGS

O=C1C=C(c2c(-n3cnnn3)ccc(Cl)c2F)C[C@H]2CC[C@@H](c3ncc(-c4ccnc(CO)c4F)[nH]3)N12 [Compound of formula (I-A), (3S,8aR)-7-(3-Chloro-2-fluoro-6-(1H-tetrazol-1-yl)phenyl)-3-(5-(3-fluoro-2-(hydroxymethyl)pyridin-4-yl)-1H-imidazol-2-yl)-2,3,8,8a-tetrahydroindolizin-5(1H)-one]
IC50 (HERG current): > 30 µM | AMES II assay result [1]: negative
